Like-named read-outs stand apart in the source and are kept apart here.
Legend:
[1] = test system: male Sprague-Dawley rats
[2] = test system: male Sprague-Dawley rats; details: nasal, 2%, 20 uL/nare; vehicle cyclodextrin; urethane-anesthetized rats; FIG. 2
Description: Mean arterial blood pressure was measured using a Digi-Med Blood Pressure Analyzer. The rats were anesthetized with urethane (2 g/kg, IP) and the left carotid artery was cannulated. A baseline blood pressure was recorded then the drug (or vehicle) was administered and blood pressure recorded for 45-60 minutes.

Row | Structure (SMILES) | total distance traveled, drug treated groups compared to vehicle treated group ([1]; rat, in vivo) | total distance traveled, drug treated groups compared to vehicle treated group ([1]; nasal, 2%, 20 uL/nare, vehicle distilled water, an hour after administration, FIG. 5) | effect on mean arterial blood pressure compared to vehicle treated group [2] | total distance traveled, compared to no treatment group ([1]; rat, in vivo)
1 | COc1ccc([C@@H]2Sc3ccccc3N(CCN(C)C)C(=O)[C@@H]2OC(C)=O)cc1 [diltiazem] | no significant difference | – | – | –
2 | COc1ccc(CCN(C)CCCC(C#N)(c2ccc(OC)c(OC)c2)C(C)C)cc1OC (centres unmarked) [verapamil] | – | no significant difference | – | –
3 | C(=C\c1ccccc1)/CN1CCN(C(c2ccccc2)c2ccccc2)CC1 [cinnarizine] | no significant difference | – | Only the nifedipine group at 45 minutes was statistically significantly different | statistically significant difference

Source: patent US20050191245A1, “Nasal administration of calcium channel, blockers for treatment of hypertension and other cardiovascular disorders” (priority 2004, published 2005)
